{"source": "patent US7670791B1", "about": "“Method for the suppression of visceral pain by regulating T-type calcium channel” (Korea Institute of Science and Technology, priority 2001, dated 2010)", "key": {"[1]": {"system": "visceral pain caused by acetic acid in normal mice", "test": "Acetic acid-induced visceral pain (writhing test) after mibefradil injection", "assay_type": "in vivo", "procedure": "The present inventors injected 0.6% acetic acid into the peritoneal cavity of mice to examine the acetic acid-induced visceral pain response. The visceral pain is elicited secondarily to a delayed inflammatory response and induced abdominal stretching and writhing behavior (Gyires and Torma, Arch Int. Pharmacodyn. Ther., 1984, 267:131-140). Mice were placed individually in a transparent home cage (24×18×12 cm) and allowed to acclimate for at least 60 min. Then, 0.6% acetic acid ([…]) was injected into the peritoneum, after which the mice was returned to the testing chamber. The number of abdominal stretches or writhing motions was counted for 20 min. All mice were used only once in this experiment. […]\nParticularly, in order to find out how mibefradil, the T-type calcium channel inhibitor functions, mibefreail was dissolved in 0.9% of NaCl at the concentration of 5 mg/ml. The degree of writhing was measured in a visceral pain inducing experiment 20 minutes after the injection of the said mibefradil at the concentration of 1, 10 and 30 mg/kg respectively in peritoneum of the mice."}, "[2]": {"conditions": "inside the body, after peripheral (peritoneal) injection; cited from earlier work"}}}
{"smiles": "COCC(=O)O[C@]1(CCN(C)CCCc2nc3ccccc3[nH]2)CCc2cc(F)ccc2[C@@H]1C(C)C", "note": "[mibefradil, Mibefradil]", "values": [{"measurement": "degree of writhing / visceral pain caused by acetic acid", "setting": "[1]; normal (wild-type) mice, mibefradil 1, 10 and 30 mg/kg in peritoneum, 20 minutes before test, 0.6% acetic acid i.p., FIG. 4", "value": "induced analgesia"}, {"measurement": "visceral pain caused by acetic acid", "setting": "[1]; wild-type mice, mibefradil injected in the brain", "value": "enhanced"}, {"measurement": "passage through the brain barrier", "setting": "[2]", "value": "cannot pass through the brain barrier"}]}
